Measured values published in the supplement of paper PMC10307832.

Legend:
Experiment in all cases: relative viability (nuclei count vs DMSO), 5 days (fraction); higher = more cells survive
[1] = compound: CCN1C(=O)C2=CC(=C(N=C2N(C1=O)C3CC3)N)C(=O)N + CC(C)C[C@H](NC(=O)[C@H](Cc1ccccc1)NC(=O)c1cnccn1)B(O)O [Bortezomib] (partner 0.002 µM)
How it was run: (§1)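 Cells from lung cancer lines were seeded into 1536-well plates and, one day later, dosed by pin tool. Treatments were either a single drug or a fixed dose of an anchor drug with five library-drug doses (not always all listed) in √10 steps. After 5 days, nuclei were stained in a one-step fixation (final 0.05% Triton X-100, 1% formaldehyde, 1 ug/ml Hoechst) and counted on 4× images, and relative viability is the treated-to-vehicle nuclei ratio, as the median of duplicate plates.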

[2] = compound: CCN1C(=O)C2=CC(=C(N=C2N(C1=O)C3CC3)N)C(=O)N + Nc1nc2[nH]cc(CCc3ccc(C(=O)N[C@@H](CCC(=O)O)C(=O)O)cc3)c2c(=O)[nH]1 [Pemetrexed] (partner 0.2 µM)
How it was run: as §1

[3] = compound: CCN1C(=O)C2=CC(=C(N=C2N(C1=O)C3CC3)N)C(=O)N + CC(=O)c1c(C)c2cnc(Nc3ccc(N4CCNCC4)cn3)nc2n(C2CCCC2)c1=O [Palbociclib] (partner 0.5 µM)
How it was run: as §1

[4] = compound: CCN1C(=O)C2=CC(=C(N=C2N(C1=O)C3CC3)N)C(=O)N + COc1cc2c(Oc3ccc(NC(=O)C4(C(=O)Nc5ccc(F)cc5)CC4)cc3F)ccnc2cc1OCCCN1CCOCC1 [Foretinib] (partner 0.25 µM)
How it was run: as §1

[5] = compound: CCN1C(=O)C2=CC(=C(N=C2N(C1=O)C3CC3)N)C(=O)N + Nc1ncn([C@H]2C[C@H](O)[C@@H](CO)O2)c(=O)n1 [Decitabine] (partner 2 µM)
How it was run: as §1

Cell Line	relative viability ([1]; first compound 0.253 µM)	relative viability ([1]; first compound 0.8 µM)	relative viability ([1]; first compound 2.53 µM)	relative viability ([1]; first compound 8 µM)	relative viability ([2]; first compound 0.253 µM)	relative viability ([2]; first compound 0.8 µM)	relative viability ([2]; first compound 2.53 µM)	relative viability ([2]; first compound 8 µM)	relative viability ([3]; first compound 0.253 µM)	relative viability ([3]; first compound 0.8 µM)	relative viability ([3]; first compound 2.53 µM)	relative viability ([3]; first compound 8 µM)	relative viability ([4]; first compound 0.253 µM)	relative viability ([4]; first compound 2.53 µM)	relative viability ([4]; first compound 8 µM)	relative viability ([5]; first compound 0.253 µM)	relative viability ([5]; first compound 0.8 µM)	relative viability ([5]; first compound 2.53 µM)	relative viability ([5]; first compound 8 µM)	relative viability ([4]; first compound 0.8 µM)
HCC-78	0.293	0.479	0.463	0.516	0.866	0.949	0.813	0.842	0.472	0.463	0.509	0.449	0.532	0.582	0.502	0.681	0.636	0.726	0.639	
HCC-366	1.03	1	1	0.997	0.167	0.17	0.155	0.163	0.334	0.403	0.378	0.417		0.951	0.919	0.294	0.346	0.341	0.284	0.91
HCC-827	1.06	1.11	1.06	0.972	0.259	0.268	0.224	0.264	0.475	0.45	0.395	0.517	0.982	0.99	1.06	0.342	0.284	0.332	0.319	0.993
HOP-62	0.914	0.75	0.754	0.733	0.278	0.353	0.303	0.345	0.516	0.428	0.415	0.474	1	1.03	1.03	0.242	0.218	0.161	0.184	1.11
LC-2-ad	0.922	0.965	1.02	1.07	0.288	0.298	0.273	0.278	0.424	0.53	0.483	0.496	0.926	0.986	0.94	0.765	0.735	0.681	0.777	0.855
LCLC-97TM1	0.873	0.326	1.27	0.625	0.227	0.177	0.173	0.172	0.272	0.244	0.294	0.181	0.869	0.86	1.1	0.207	0.225	0.244	0.262	0.866
LCLC-103H	1.07	0.981	1.05	1.05	0.46	0.461	0.46	0.453	0.446	0.481	0.479	0.456	0.852	0.728	0.922	0.723	0.699	0.753	0.702	0.721
LOU-NH91	0.565	0.502	0.516	0.496	0.369	0.377	0.383	0.379	0.542	0.554	0.516	0.513	0.847	0.978	0.916	0.849	0.781	0.768	0.798	0.855
LU99A	1.25	1.16	1.06	1.19	0.174	0.187	0.168	0.184	0.461	0.448	0.419	0.409	0.732	0.789	0.857	0.765	0.952	0.873	0.828	0.8
LXF-289	0.987	0.997	0.966	0.994	0.917	0.889	0.895	0.993	0.616	0.581	0.657	0.588	0.995	0.966	1	0.345	0.37	0.346	0.336	1
NCI-H23	1.02	1.03	1.08	0.956	0.785	0.734	0.677	0.634	0.502	0.604	0.461	0.49	0.942	1.07	1.11	0.315	0.305	0.289	0.32	1.13
NCI-H322M	1.25	0.701	1.25	1.14	0.632	0.541	0.634	0.6	0.478	0.455	0.482	0.502	0.953	0.988	1.1	0.697	0.728	0.673	0.719	0.958
NCI-H441	0.464	0.421	0.456	0.775	0.272	0.246	0.263	0.26	0.22	0.231	0.224	0.244	0.925	0.956	0.995	0.305	0.244	0.265	0.258	0.82
NCI-H460	1.16	1.03	0.983	1.23	0.0628	0.0522	0.0677	0.0646	0.22	0.151	0.115	0.192	0.992	0.979	0.943	0.454	0.462	0.524	0.301	1.04
NCI-H520	0.574	0.574	0.743	0.612	0.635	0.64	0.703	0.657	0.24	0.228	0.185	0.203	0.544	0.827	0.899	0.483	0.48	0.474	0.428	0.709
NCI-H647	0.92	1.05	0.951	0.784	0.174	0.205	0.157	0.185	0.434	0.356	0.328	0.355	1.23	1.07	1.23	0.444	0.411	0.458	0.433	1.14

Cell Line	relative viability ([1]; first compound 0.253 µM)	relative viability ([1]; first compound 0.8 µM)	relative viability ([1]; first compound 2.53 µM)	relative viability ([1]; first compound 8 µM)	relative viability ([2]; first compound 0.253 µM)	relative viability ([2]; first compound 0.8 µM)	relative viability ([2]; first compound 2.53 µM)	relative viability ([2]; first compound 8 µM)	relative viability ([3]; first compound 0.253 µM)	relative viability ([3]; first compound 0.8 µM)	relative viability ([3]; first compound 2.53 µM)	relative viability ([3]; first compound 8 µM)	relative viability ([4]; first compound 0.253 µM)	relative viability ([4]; first compound 2.53 µM)	relative viability ([4]; first compound 8 µM)	relative viability ([5]; first compound 0.253 µM)	relative viability ([5]; first compound 0.8 µM)	relative viability ([5]; first compound 2.53 µM)	relative viability ([5]; first compound 8 µM)	relative viability ([4]; first compound 0.8 µM)
NCI-H650	1.03	0.701	0.935	0.701	0.962	0.782	0.954	0.978	0.363	0.299	0.342	0.334	0.969	0.954	0.944	0.331	0.325	0.329	0.283	1.04
NCI-H661	0.809	0.9	0.793	0.942	0.918	0.905	0.935	0.886	0.391	0.389	0.39	0.4	0.989	0.939	1.01	0.544	0.551	0.517	0.543	1.08
NCI-H838	0.857	0.887	0.891	0.912	0.239	0.274	0.242	0.248	0.251	0.216	0.215	0.213	1.07	0.868	0.926	0.469	0.426	0.411	0.451	0.989
NCI-H1355	1.22	1.3	1.22	1.25	1.03	1	1.03	0.96	0.418	0.358	0.396	0.395	0.996	0.963	0.937	0.325	0.331	0.382	0.339	1.01
NCI-H1437	0.489	0.543	0.515	0.618	0.294	0.316	0.287	0.304	0.337	0.323	0.315	0.245	1.23	1.19	1.21	0.654	0.578	0.591	0.509	1.21
NCI-H1650	0.192	0.185	0.182	0.187	0.38	0.324	0.333	0.382	0.315	0.364	0.346	0.313	0.913	0.955	1.12	0.351	0.404	0.43	0.401	1.15
NCI-H1651	0.996	0.897	0.964	0.858	0.582	0.608	0.588	0.597	0.471	0.489	0.512	0.501	0.921	0.656	0.772	0.534	0.585	0.582	0.386	0.838
NCI-H1666	0.739	0.692	0.848	0.74	0.844	0.879	0.812	0.799	0.683	0.654	0.629	0.65		0.948	1.04	0.615	0.688	0.728	0.68	0.857
NCI-H1734	0.953	0.999	0.918	1	0.432	0.392	0.405	0.423	0.346	0.328	0.363	0.36	0.835	0.745	1.01	0.499	0.488	0.502	0.565	0.764
NCI-H1755	0.949	0.966	0.921	0.948	0.525	0.412	0.418	0.471	0.443	0.453	0.436	0.44	0.974	0.914	0.875	0.771	0.743	0.704	0.652	0.887
NCI-H1915	0.968	0.93	0.955	0.955	0.5	0.507	0.493	0.509	0.531	0.508	0.493	0.526	1.05	1.11	1.04	0.243	0.261	0.252	0.249	1.09
NCI-H1975	0.378	0.423	0.413	0.439	0.294	0.292	0.319	0.288	0.564	0.623	0.602	0.489	1.02	0.895	0.951	0.352	0.401	0.388	0.365	0.916
NCI-H1993	1.05	0.925	0.983	1.11	0.607	0.525	0.607	0.541	0.414	0.561	0.651	0.676	0.819	0.625	0.822	0.677	0.586	0.555	0.701	0.751
NCI-H2009	0.963	1.09	0.965	0.94	1.1	1.09	1	0.966	0.208	0.184	0.21	0.186	1.2	1.2	1.12	0.385	0.409	0.394	0.379	1.18
NCI-H2023	0.829	0.915	0.95	0.984	0.198	0.182	0.222	0.247	0.438	0.39	0.313	0.382	0.756	0.845	0.848	0.214	0.223	0.209	0.215	0.743
NCI-H2085	0.971	1.1	1.04	0.996	0.914	0.847	0.987	0.851	0.479	0.446	0.441	0.445	0.992	0.834	0.947	0.566	0.522	0.563	0.524	0.874
